# According to US11793818B2, “Method for treating conditions associated with hyperproliferating cells comprising combined administration of a cannabinoid receptor agonist and radiation therapy” (Theralase Technologies, Inc., priority 2018, dated 2023):
# Test system: Glioma cells
# Assay: Glioma cell kill (presto blue) after d9-THC pre-treatment and PDT with 14C PDC
# Assay type: cell-based
# Settings: 40 μM d9-THC, no PDT
# Experimental: Glioma cells were treated with delta9-tetrahydrocannabinol (“d9-THC”) for 24 hours prior to treatment with 14C PDC and light activated. Five concentrations of d9-THC were used (0, 5, 10, 20, 40 μM). As a significant effect was only observed with a d9-THC concentration of 40 μM, only the results obtained at this concentration are shown (see FIG. 1). After 24 hours, cells were treated with 14C PDC for 4 hours, PDT was performed using green light (20 J/cm^2) and plates were incubated overnight for presto blue on the following day. The PDT dose used was decreased to induce 10-15% cell kill in order to highlight any additive/synergistic effect of the combination that might otherwise be masked if a higher dose had been used.
# Absolute cell kill values are shown with error bars representing standard deviations between wells. The hypothetical additive effect represents the hypothetical cell kill percentage had the combined effect merely been additive. Reading from left to right in FIG. 1: the first bar is the control; the second bar is d9-THC only; the third bar is light activated 14C PDC only; the fourth bar is hypothetical cell kill percentage of d9-THC combined with 14C PDC light activated; and the fifth bar is PDT (light activated 14C PDC) combined with the tested cannabinoid. PDT alone (light activated 14C PDC) induced 10% cell kill. 40 μM of d9-THC induced 10% cell kill.
smiles,measurement,value
"CCCCCc1cc(O)c2c(c1)OC(C)(C)[C@@H]1CCC(C)=C[C@@H]21 [d9-THC, delta9-tetrahydrocannabinol]","cell kill, d9-THC only",10%
